Measured values taken from article PMC3240716 (Journal of medicinal chemistry, 2011).
“Also recorded” adds a separate entry of the source.

What was measured:
[1] = target: Hα3β4 nAChRs (Homo sapiens, UniProt P30926+P32297); experiment: Calcium accumulation assay, HEK ts201 cells stably expressing Hα3β4 nAChRs; assay type: cell-based; details: for effect / activity on Hα3β4 nAChRs: up to 100 µM
[2] = target: Hα4β2 nAChRs (Homo sapiens, UniProt P17787+P43681); experiment: Calcium accumulation assay, HEK ts201 cells stably expressing Hα4β2 nAChRs; assay type: cell-based; details: for effect / activity on Hα4β2 nAChRs: up to 100 µM
Hα4β2 nAChRs, sequence (P43681 29-627 limits assumed): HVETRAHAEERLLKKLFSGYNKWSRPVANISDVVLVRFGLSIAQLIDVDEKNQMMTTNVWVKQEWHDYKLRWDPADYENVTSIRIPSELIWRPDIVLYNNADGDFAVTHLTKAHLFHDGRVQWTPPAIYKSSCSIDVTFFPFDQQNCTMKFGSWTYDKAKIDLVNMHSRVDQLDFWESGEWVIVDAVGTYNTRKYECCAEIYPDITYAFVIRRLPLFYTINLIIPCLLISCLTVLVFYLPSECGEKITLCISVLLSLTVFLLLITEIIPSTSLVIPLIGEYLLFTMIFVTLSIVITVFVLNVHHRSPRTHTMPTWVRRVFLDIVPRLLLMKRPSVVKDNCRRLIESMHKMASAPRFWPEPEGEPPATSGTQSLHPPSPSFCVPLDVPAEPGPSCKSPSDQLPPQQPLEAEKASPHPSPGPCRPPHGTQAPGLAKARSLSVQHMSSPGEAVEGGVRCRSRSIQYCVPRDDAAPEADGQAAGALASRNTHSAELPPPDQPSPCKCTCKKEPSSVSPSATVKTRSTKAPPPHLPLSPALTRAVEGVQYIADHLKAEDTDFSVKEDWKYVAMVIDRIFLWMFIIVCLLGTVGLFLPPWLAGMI
Hα4β2 nAChRs, sequence (P17787 26-502): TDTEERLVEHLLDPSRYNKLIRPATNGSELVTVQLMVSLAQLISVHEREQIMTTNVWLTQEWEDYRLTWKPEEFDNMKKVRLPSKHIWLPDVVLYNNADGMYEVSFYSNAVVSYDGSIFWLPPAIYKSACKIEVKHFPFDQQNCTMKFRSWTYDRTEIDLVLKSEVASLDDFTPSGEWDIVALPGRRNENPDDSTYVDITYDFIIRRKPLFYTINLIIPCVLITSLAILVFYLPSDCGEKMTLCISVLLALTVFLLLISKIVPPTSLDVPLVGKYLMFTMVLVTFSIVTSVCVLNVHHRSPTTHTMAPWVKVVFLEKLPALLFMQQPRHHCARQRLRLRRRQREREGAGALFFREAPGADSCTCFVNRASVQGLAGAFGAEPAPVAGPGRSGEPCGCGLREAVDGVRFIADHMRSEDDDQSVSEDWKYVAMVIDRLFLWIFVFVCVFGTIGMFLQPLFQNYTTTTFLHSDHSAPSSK

[3] = 30 µM compound, competitive vs non-competitive test, n=4
[4] = approximate, concentration used in Figure 1

Hα3β4 nAChRs, sequence (P32297 32-505): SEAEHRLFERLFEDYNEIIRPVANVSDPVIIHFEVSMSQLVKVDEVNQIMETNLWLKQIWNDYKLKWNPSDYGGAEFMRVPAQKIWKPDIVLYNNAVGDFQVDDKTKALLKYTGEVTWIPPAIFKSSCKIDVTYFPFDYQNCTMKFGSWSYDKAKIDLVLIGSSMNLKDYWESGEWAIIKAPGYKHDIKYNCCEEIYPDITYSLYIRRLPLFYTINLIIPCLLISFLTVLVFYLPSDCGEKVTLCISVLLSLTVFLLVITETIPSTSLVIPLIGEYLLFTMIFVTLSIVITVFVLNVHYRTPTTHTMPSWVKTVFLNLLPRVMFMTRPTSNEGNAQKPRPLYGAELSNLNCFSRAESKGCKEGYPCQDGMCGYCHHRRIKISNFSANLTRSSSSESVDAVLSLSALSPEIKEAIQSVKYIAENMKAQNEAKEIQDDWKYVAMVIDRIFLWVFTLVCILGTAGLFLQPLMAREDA
Hα3β4 nAChRs, sequence (P30926 22-498): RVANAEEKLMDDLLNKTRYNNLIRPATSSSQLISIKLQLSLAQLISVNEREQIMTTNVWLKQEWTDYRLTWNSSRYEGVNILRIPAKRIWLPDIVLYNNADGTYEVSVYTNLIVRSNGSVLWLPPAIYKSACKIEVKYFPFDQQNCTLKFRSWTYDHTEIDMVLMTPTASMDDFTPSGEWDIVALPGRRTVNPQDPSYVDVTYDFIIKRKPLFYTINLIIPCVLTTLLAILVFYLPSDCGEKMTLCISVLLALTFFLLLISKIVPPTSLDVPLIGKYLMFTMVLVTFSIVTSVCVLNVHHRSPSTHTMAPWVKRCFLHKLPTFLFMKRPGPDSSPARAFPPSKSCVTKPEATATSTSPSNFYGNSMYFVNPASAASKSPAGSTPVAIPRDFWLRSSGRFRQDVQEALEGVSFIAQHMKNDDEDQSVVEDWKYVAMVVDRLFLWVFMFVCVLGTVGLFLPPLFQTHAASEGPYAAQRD

## O=S(=O)(c1ccc(F)cc1)N1CCNCC1 [Compound 3, 1-([4-fluorophenyl]sulfonyl)piperazine]
[1]
  effect / activity on Hα3β4 nAChRs: no effect
[2]
  effect / activity on Hα4β2 nAChRs: no effect

## O=C(CN1CCN(S(=O)(=O)c2ccc(F)cc2)CC1)Nc1ccc2[nH]ncc2c1 [Compound 11, 2-(4-((4-fluorophenyl)sulfonyl)piperazin-1-yl)-N-(1H-indazol-5-yl)acetamide]
[1]; compared to lead compound 1
  fold decrease in potency for Hα3β4 nAChRs: 3 fold
[2]; compared to lead compound 1
  change in potency for Hα4β2 nAChRs: slight increase

## COc1ccc(NC(=O)CN2CCN(S(=O)(=O)c3cccnc3)CC2)cc1 [Compound 26, N-(4-methoxyphenyl)-2-(4-(pyridin-3-ylsulfonyl)-piperazin-1-yl)acetamide]
[1]; compared to lead compound 1
  change in potency for Hα3β4 nAChRs: significant decrease
[2]; compared to lead compound 1
  change in potency for Hα4β2 nAChRs: significant decrease

## O=C(CN1CCN(S(=O)(=O)c2ccccc2F)CC1)Nc1ccc(F)cc1 [Compound 20, N-(4-fluorophenyl)-2-(4-((2-fluorophenyl)sulfonyl)-piperazin-1-yl)acetamide]
[1]; compared to analog 16
  fold increase in potency for Hα3β4 nAChRs: 6 fold
[2]; compared to analog 16
  change in potency for Hα4β2 nAChRs: no change

## O=C(CN1CCN(S(=O)(=O)c2ccc(F)cc2)CC1)Nc1ccc(F)cc1 [Compound 14, N-(4-fluorophenyl)-2-(4-((4-fluorophenyl)sulfonyl)-piperazin-1-yl)acetamide]
[1]; compared to lead compound 1
  change in potency for Hα3β4 nAChRs: no significant change
[2]; compared to lead compound 1
  change in potency for Hα4β2 nAChRs: no significant change

## O=C(CN1CCN(S(=O)(=O)c2ccccc2)CC1)Nc1ccccc1F [Compound 18, N-(2-fluorophenyl)-2-(4-(phenylsulfonyl)piperazin-1-yl)acetamide]
[1]; compared to lead compound 1
  fold increase in potency for Hα3β4 nAChRs: 2 fold
[2]; compared to lead compound 1
  fold increase in potency for Hα4β2 nAChRs: 2 fold

## O=C(CN1CCN(S(=O)(=O)c2ccc(F)cc2)CC1)Nc1ccccc1 [Compound 15, 2-(4-((4-fluorophenyl)sulfonyl)piperazin-1-yl)-N-phenylacetamide]
[1]; compared to lead compound 1
  fold decrease in potency for Hα3β4 nAChRs: 2 fold
[2]; compared to lead compound 1
  change in potency for Hα4β2 nAChRs: no significant change

## COc1ccc(S(=O)(=O)N2CCN(CC(=O)Nc3ccc(F)cc3)CC2)cc1 [Compound 28, N-(4-fluorophenyl)-2-(4-((4-methoxyphenyl)sulfonyl)-piperazin-1-yl)acetamide]
[1]; compared to lead compound 1
  fold decrease in potency for Hα3β4 nAChRs: 2 fold
[2]; compared to lead compound 1
  fold decrease in potency for Hα4β2 nAChRs: 2 fold

## O=C(CN1CCN(S(=O)(=O)c2ccc(F)cc2)CC1)Nc1ccccc1F [Compound 1, N-(2-fluorophenyl)-2-(4-((4-fluorophenyl)sulfonyl)piperazin-1-yl)acetamide]
[1]; [3]
  effect on epibatidine concentration-response, Hα3β4 nAChRs: reduced the maximum efficacy
[1]; [4]
  IC70, Hα3β4 nAChRs: ~30 µM
[2]; [3]
  effect on epibatidine concentration-response, Hα4β2 nAChRs: reduced the maximum efficacy
[2]; [4]
  IC70, Hα4β2 nAChRs: ~30 µM

## O=C(CN1CCN(S(=O)(=O)c2ccccc2F)CC1)Nc1ccccc1F [Compound 16, N-(2-fluorophenyl)-2-(4-((2-fluorophenyl)sulfonyl)-piperazin-1-yl)acetamide]
[2]; compared to lead compound 1
  change in potency for Hα4β2 nAChRs: no significant change

## O=C(CN1CCN(S(=O)(=O)c2ccccc2F)CC1)Nc1ccc(C(=O)O)cc1 [Compound 23, 4-(2-(4-((2-fluorophenyl)sulfonyl)piperazin-1-yl)acetamido)benzoic acid]
[1]
  effect / activity on Hα3β4 nAChRs: loss of activity
[2]
  effect / activity on Hα4β2 nAChRs: loss of activity

## COc1ccc(NC(=O)CN2CCN(S(=O)(=O)c3ccc(F)cc3)CC2)cc1 [Compound 13, 2-(4-((4-fluorophenyl)sulfonyl)piperazin-1-yl)-N-(4-methoxyphenyl)acetamide]
[1]; compared to lead compound 1
  fold decrease in potency for Hα3β4 nAChRs: 3 fold
[2]; compared to lead compound 1
  fold decrease in potency for Hα4β2 nAChRs: 2 fold

## O=C(CN1CCN(S(=O)(=O)c2cccnc2)CC1)Nc1ccccc1F [Compound 17, N-(2-fluorophenyl)-2-(4-(pyridin-3-ylsulfonyl)piperazin-1-yl)acetamide]
[1]; compared to lead compound 1
  fold decrease in potency for Hα3β4 nAChRs: 5 fold
[2]; compared to lead compound 1
  fold decrease in potency for Hα4β2 nAChRs: 2 fold

## O=C(CN1CCN(S(=O)(=O)c2ccccc2F)CC1)Nc1cc[nH]n1 [Compound 24, 2-(4-((2-fluorophenyl)sulfonyl)piperazin-1-yl)-N-(1H-pyrazol-3-yl)acetamide]
[1]
  effect / activity on Hα3β4 nAChRs: loss of activity
[2]
  effect / activity on Hα4β2 nAChRs: loss of activity

## COC(=O)c1ccc(NC(=O)CN2CCN(S(=O)(=O)c3ccccc3F)CC2)cc1 [Compound 22, methyl 4-(2-(4-((2-fluorophenyl)sulfonyl)piperazin-1-yl)acetamido)benzoate]
[1]; compared to analog 16
  fold increase in potency for Hα3β4 nAChRs: 8 fold
[2]; compared to analog 16
  change in potency for Hα4β2 nAChRs: no significant change

## O=C(CN1CCN(S(=O)(=O)c2ccc(F)cc2)CC1)Nc1cc[nH]n1 [Compound 12, 2-(4-((4-fluorophenyl)sulfonyl)piperazin-1-yl)-N-(1H-pyrazol-3-yl)acetamide]
[1]; compared to lead compound 1
  change in potency for Hα3β4 nAChRs: significant decrease
[1]
  effect / activity on Hα3β4 nAChRs: abolished activity; also recorded: loss of activity
[2]; compared to lead compound 1
  change in potency for Hα4β2 nAChRs: significant decrease
[2]
  effect / activity on Hα4β2 nAChRs: abolished activity; also recorded: loss of activity

## COc1ccc(NC(=O)CN2CCN(S(=O)(=O)c3ccccc3F)CC2)cc1 [Compound 21, 2-(4-((2-fluorophenyl)sulfonyl)piperazin-1-yl)-N-(4-methoxyphenyl)acetamide]
[1]; compared to analog 16
  fold increase in potency for Hα3β4 nAChRs: 4 fold
[2]; compared to analog 16
  fold decrease in potency for Hα4β2 nAChRs: 2 fold

## COc1ccc(S(=O)(=O)N2CCN(CC(=O)Nc3ccccc3F)CC2)cc1 [Compound 19, N-(2-fluorophenyl)-2-(4-((4-methoxyphenyl)sulfonyl)-piperazin-1-yl)acetamide]
[1]; compared to lead compound 1
  change in potency for Hα3β4 nAChRs: no significant change
[2]; compared to lead compound 1
  change in potency for Hα4β2 nAChRs: no significant change
